Reference: PMC5540273, “Progress towards a public chemogenomic set for protein kinases and a call for contributions” (PLoS ONE, 2017)

What was measured:
Assay in all cases: KINOMEscan competition binding
[1] = molecular target: EGFR (Homo sapiens, UniProt P00533); settings: read-out: %Inh EGFR
[2] = molecular target: LRRK2 (Homo sapiens, UniProt Q5S007); settings: read-out: %Inh LRRK2
[3] = molecular target: AMPK-alpha1 (Homo sapiens, UniProt Q13131); settings: read-out: %Inh AMPK-alpha1
[4] = molecular target: BIKE (Homo sapiens, UniProt Q9NSY1); settings: read-out: %Inh BIKE
[5] = molecular target: T1, EPHB2 (Homo sapiens, UniProt P29323); settings: read-out: %Inh EPHB2
T1 sequence (P29323 19-1055): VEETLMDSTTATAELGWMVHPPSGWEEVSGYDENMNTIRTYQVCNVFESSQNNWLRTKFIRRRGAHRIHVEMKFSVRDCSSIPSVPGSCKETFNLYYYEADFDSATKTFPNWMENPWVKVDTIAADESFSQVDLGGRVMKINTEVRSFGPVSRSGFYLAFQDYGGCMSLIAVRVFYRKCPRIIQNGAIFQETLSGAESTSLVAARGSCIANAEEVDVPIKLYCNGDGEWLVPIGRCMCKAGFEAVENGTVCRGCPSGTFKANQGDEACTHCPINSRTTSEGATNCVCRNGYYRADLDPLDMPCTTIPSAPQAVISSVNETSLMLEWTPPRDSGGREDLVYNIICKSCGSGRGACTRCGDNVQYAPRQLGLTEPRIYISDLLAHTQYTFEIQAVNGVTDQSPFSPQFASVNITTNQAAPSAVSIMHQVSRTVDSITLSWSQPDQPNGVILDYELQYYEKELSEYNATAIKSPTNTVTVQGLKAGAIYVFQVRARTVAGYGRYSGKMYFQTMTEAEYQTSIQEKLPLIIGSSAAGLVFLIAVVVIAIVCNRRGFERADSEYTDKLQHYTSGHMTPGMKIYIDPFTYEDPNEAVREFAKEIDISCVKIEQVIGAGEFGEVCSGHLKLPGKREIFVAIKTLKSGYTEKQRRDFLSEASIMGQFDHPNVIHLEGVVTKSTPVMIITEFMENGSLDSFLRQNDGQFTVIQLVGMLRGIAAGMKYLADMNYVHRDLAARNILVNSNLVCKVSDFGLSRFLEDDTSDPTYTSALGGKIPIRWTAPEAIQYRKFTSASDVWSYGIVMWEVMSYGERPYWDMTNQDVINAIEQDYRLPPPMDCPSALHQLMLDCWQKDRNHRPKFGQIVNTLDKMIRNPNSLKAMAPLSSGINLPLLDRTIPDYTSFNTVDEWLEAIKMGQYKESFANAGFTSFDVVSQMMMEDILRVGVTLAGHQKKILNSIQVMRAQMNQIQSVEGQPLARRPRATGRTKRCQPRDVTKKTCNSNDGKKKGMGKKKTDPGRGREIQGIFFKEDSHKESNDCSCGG

[6] = molecular target: T2, EPHA3 (Homo sapiens, UniProt P29320); settings: read-out: %Inh EPHA3
T2 sequence (P29320 21-983): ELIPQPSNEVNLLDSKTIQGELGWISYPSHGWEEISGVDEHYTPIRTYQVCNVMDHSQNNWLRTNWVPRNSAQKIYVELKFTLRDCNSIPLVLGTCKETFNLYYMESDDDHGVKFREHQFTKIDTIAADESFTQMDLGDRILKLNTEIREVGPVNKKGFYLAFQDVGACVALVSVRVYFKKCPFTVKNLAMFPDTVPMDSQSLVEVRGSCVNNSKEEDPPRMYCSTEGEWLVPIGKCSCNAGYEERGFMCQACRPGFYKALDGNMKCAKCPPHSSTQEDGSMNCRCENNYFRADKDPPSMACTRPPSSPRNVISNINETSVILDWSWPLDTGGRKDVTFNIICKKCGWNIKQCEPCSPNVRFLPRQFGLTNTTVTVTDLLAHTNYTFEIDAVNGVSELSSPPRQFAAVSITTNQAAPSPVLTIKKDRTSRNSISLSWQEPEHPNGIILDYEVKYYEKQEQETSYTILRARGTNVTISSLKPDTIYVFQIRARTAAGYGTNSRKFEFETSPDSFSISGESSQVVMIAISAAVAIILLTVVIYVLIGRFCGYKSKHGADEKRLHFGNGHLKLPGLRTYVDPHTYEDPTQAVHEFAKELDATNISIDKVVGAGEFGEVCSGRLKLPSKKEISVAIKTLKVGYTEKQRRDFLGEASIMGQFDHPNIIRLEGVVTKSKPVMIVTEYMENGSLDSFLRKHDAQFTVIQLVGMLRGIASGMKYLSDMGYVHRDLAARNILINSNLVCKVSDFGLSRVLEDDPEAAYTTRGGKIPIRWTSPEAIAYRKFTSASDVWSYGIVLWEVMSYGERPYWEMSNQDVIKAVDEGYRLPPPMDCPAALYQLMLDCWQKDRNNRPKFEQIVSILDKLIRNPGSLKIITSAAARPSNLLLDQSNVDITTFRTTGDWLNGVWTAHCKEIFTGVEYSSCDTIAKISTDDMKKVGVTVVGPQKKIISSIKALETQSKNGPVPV

[7] = molecular target: T3, DRAK2 (Homo sapiens, UniProt O94768); settings: read-out: %Inh DRAK2
T3 sequence (O94768 1-372): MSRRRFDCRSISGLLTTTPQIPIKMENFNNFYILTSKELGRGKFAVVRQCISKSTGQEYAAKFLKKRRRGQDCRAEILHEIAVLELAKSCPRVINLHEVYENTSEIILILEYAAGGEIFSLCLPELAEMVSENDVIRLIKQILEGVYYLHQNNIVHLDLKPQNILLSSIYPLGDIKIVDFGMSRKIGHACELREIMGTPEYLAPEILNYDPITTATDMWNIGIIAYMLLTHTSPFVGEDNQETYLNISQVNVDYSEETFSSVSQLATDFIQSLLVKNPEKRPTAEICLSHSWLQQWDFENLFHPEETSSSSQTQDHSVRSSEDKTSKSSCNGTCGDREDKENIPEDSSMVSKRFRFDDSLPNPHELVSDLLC

[8] = molecular target: CDK5 (Homo sapiens, UniProt Q00535); settings: read-out: %Inh CDK5
Sequence of CDK5 (Q00535 whole entry): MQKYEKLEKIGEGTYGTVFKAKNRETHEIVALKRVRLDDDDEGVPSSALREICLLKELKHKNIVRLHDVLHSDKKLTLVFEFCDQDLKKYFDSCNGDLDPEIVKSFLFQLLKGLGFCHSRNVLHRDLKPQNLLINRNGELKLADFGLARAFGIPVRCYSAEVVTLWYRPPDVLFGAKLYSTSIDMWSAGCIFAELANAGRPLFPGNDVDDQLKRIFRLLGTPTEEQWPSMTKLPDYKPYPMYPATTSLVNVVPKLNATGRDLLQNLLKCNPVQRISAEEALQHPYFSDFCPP

Sequence of LRRK2 (Q5S007 whole entry): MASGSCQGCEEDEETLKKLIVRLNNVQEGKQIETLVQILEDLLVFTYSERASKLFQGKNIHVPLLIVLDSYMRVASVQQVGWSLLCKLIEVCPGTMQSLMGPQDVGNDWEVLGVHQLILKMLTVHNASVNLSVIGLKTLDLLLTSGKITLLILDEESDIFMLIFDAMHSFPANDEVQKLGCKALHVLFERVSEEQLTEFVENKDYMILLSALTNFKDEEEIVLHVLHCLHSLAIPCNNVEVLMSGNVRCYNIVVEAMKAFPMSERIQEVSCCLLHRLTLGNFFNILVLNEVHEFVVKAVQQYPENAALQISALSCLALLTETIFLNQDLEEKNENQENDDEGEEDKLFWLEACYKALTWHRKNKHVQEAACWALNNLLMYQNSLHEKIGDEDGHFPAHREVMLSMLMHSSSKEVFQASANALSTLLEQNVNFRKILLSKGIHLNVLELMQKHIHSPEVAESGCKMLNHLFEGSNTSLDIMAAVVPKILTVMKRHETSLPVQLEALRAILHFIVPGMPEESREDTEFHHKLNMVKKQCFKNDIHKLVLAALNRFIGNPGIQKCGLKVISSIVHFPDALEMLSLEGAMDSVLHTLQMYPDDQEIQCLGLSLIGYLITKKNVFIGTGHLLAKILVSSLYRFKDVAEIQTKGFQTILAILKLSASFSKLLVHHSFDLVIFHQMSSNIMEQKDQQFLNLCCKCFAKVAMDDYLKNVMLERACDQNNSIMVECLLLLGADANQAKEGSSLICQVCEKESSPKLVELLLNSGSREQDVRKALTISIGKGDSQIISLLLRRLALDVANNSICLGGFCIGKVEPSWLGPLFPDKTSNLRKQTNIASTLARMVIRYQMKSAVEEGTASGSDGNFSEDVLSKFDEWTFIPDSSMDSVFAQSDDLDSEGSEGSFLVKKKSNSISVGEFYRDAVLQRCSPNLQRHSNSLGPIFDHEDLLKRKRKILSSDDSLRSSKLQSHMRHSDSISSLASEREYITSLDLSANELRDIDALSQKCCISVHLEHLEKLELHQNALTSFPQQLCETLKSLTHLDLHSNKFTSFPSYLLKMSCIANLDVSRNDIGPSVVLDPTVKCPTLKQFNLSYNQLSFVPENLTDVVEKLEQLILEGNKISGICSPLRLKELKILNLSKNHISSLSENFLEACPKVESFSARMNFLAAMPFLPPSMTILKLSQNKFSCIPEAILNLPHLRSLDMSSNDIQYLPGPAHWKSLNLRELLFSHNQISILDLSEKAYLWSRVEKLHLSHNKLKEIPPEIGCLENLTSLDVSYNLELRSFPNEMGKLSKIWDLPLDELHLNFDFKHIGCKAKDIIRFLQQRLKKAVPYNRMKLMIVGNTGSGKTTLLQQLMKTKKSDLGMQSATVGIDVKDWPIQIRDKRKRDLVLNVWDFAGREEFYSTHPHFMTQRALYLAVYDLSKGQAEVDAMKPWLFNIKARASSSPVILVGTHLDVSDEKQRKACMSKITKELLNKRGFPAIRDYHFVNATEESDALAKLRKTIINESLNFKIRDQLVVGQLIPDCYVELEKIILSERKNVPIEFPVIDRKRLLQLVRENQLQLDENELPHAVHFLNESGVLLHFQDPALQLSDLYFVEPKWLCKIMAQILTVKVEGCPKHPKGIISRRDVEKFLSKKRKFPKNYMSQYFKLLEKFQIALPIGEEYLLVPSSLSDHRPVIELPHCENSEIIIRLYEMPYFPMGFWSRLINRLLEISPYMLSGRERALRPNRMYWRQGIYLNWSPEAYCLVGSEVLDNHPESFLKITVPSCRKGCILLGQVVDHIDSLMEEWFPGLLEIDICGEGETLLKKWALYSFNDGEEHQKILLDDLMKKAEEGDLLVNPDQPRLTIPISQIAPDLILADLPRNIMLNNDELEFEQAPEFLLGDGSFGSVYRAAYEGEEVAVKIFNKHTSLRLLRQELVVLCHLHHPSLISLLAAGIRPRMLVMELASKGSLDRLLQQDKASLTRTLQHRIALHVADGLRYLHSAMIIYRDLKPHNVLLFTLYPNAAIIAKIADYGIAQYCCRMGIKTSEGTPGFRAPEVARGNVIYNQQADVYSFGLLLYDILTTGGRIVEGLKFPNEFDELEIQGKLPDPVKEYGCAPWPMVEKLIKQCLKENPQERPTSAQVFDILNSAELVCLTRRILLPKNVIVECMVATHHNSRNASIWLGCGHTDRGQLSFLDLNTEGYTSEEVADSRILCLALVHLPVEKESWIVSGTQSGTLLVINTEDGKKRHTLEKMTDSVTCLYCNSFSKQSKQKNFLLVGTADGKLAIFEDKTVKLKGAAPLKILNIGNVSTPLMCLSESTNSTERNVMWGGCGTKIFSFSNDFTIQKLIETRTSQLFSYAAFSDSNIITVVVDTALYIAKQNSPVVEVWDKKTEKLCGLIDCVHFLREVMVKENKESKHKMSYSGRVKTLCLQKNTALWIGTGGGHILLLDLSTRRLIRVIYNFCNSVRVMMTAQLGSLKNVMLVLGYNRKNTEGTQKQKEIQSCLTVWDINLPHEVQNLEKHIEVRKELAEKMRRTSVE
Sequence of EGFR (P00533 25-1210): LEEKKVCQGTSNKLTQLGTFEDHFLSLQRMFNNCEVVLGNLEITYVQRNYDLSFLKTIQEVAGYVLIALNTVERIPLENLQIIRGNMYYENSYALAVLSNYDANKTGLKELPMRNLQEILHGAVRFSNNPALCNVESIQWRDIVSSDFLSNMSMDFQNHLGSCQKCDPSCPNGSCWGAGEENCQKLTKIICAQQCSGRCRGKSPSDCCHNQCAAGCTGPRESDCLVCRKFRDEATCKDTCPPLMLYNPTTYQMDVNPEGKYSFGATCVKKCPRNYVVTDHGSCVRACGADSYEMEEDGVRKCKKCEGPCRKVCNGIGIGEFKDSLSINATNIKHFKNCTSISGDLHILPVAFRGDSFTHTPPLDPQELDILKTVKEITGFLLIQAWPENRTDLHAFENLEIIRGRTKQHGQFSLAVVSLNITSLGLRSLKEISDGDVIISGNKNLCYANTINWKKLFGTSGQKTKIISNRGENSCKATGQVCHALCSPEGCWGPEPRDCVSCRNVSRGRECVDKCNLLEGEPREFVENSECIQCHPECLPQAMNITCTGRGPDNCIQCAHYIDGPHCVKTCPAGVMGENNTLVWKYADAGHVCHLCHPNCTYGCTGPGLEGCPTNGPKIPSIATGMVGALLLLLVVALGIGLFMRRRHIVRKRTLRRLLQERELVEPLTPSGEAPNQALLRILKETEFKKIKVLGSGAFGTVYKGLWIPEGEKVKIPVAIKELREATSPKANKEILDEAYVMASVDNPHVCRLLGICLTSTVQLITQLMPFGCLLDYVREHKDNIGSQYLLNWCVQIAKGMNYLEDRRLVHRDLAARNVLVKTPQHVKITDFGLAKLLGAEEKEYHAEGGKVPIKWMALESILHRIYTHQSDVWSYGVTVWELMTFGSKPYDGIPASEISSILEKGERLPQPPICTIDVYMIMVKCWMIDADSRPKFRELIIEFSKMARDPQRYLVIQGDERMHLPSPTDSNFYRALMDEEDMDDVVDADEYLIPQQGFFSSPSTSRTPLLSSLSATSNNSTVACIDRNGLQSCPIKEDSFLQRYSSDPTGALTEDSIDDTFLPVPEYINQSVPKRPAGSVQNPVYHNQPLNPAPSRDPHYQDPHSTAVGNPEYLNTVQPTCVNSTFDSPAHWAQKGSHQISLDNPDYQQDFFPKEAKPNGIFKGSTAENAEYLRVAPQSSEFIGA
Sequence of AMPK-alpha1 (Q13131 whole entry): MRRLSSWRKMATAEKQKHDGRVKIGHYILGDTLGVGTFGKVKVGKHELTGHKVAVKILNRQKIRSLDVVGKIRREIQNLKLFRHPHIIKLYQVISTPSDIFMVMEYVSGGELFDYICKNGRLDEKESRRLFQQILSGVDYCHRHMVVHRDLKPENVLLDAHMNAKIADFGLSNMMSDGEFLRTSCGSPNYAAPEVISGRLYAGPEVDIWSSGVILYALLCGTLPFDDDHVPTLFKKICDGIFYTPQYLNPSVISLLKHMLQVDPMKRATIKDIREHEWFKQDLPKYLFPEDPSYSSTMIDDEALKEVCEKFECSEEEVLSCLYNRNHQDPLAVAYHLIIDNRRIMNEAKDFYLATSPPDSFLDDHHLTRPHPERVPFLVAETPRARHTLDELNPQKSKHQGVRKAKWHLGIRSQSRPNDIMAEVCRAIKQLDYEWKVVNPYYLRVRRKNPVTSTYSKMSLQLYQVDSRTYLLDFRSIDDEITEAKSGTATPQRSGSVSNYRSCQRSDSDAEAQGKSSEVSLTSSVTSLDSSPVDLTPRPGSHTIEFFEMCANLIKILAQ

## CS(=O)(=O)Cc1ccc(Nc2nccc(-c3c(-c4cccc(NC(=O)C5CCCCC5)c4)nn4ncccc34)n2)cc1 [UNC10225159A]
[1]
  inhibition at 1 µM: 68%
[2]
  inhibition at 1 µM: 20%
[3]
  inhibition at 1 µM: 2%
[4]
  inhibition at 1 µM: 1%
[5]
  inhibition at 1 µM: 3%
[6]
  inhibition at 1 µM: 16%
[7]
  inhibition at 1 µM: 0%
[8]
  inhibition at 1 µM: 4%

## Cn1cc(-c2cnc(N)c3c(-c4ccc5c(c4)CCN5C(=O)Cc4ccccc4)csc23)cn1 [UNC10225012A]
[1]
  inhibition at 1 µM: 3%
[2]
  inhibition at 1 µM: 3%
[3]
  inhibition at 1 µM: 17%
[4]
  inhibition at 1 µM: 0%
[5]
  inhibition at 1 µM: 2%
[6]
  inhibition at 1 µM: 0%
[7]
  inhibition at 1 µM: 9%
[8]
  inhibition at 1 µM: 2%

## O=c1cc(N2CCOCC2)nc2n(Cc3cccc(Cl)c3Cl)c(C3CC3)nn12 [UNC10225469A]
[1]
  inhibition at 1 µM: 0%
[2]
  inhibition at 1 µM: 0%
[3]
  inhibition at 1 µM: 5%
[4]
  inhibition at 1 µM: 0%
[5]
  inhibition at 1 µM: 0%
[6]
  inhibition at 1 µM: 0%
[7]
  inhibition at 1 µM: 9%
[8]
  inhibition at 1 µM: 7%

## COc1cccc(OC)c1C(=O)Nc1cccc(-c2nn3ccccc3c2-c2ccnc(Nc3cccc(F)c3)n2)c1 [UNC10225310A]
[1]
  inhibition at 1 µM: 91.7%
[2]
  inhibition at 1 µM: 0%
[3]
  inhibition at 1 µM: 25%
[4]
  inhibition at 1 µM: 0%
[5]
  inhibition at 1 µM: 0%
[6]
  inhibition at 1 µM: 0%
[7]
  inhibition at 1 µM: 12%
[8]
  inhibition at 1 µM: 21%

## Cc1ccc(NC(=O)Nc2cccc(C(F)(F)F)c2)cc1 [UNC10225187A]
[1]
  inhibition at 1 µM: 0%
[2]
  inhibition at 1 µM: 0%
[3]
  inhibition at 1 µM: 0%
[4]
  inhibition at 1 µM: 4%
[5]
  inhibition at 1 µM: 3%
[6]
  inhibition at 1 µM: 0%
[7]
  inhibition at 1 µM: 0%
[8]
  inhibition at 1 µM: 0%
